The values below come from PMC12040169 (PLOS Biology, 2025).

Usually viability stands for a read-out of living cells in per cent, often relative to untreated cells.

Structures are written as SMILES.

The first data set is described as follows: in vitro. The note with it: human, hela cells.
Regarding `O=C(O)c1n[s+][n-]c1-c1cc([N+](=O)[O-])cc([N+](=O)[O-])c1O` [CBK261584], the viability at 28.5 h, 10 µM was determined as 97.2%.

Still in this data set, the particulars now being: human, hela cells, % viability.
Turning to `CCOc1cc2c(cc1NC(=O)CN(c1cccc(Cl)c1)S(C)(=O)=O)OC(C)C2` (centres unmarked) [CBK248179], the viability at 28.5 h, 10 µM worked out at 94.6%. The same measure, in the same setting: the same measure for `N#Cc1ccc(C(=O)N2CC[C@H]3NC(=O)N(c4ccccc4)C(=O)[C@H]32)cc1` [CBK289282]: 80.5%; for `O=C(c1ccccc1F)N1CCCC(c2n[nH]c3ncccc23)C1` (centres unmarked) [CBK282672]: 101%. Same read-out and setting: the same measure for `CN1CCCC1CNCc1cn(-c2ccccc2)nc1-c1cccnc1` (centres unmarked) [CBK304490]: 118%. Turning to `N#Cc1c(N)nc2c(c1-c1cccnc1)CCCC2` [CBK287885], the viability at 28.5 h, 10 µM was 85.8%.

For `CCCCOc1ccc(C(=O)N/C(=C/c2ccco2)C(=O)Nc2cccc(C(=O)O)c2)cc1` [CBK300491], the viability at 28.5 h, 10 µM came to 92.4%. Still for that read-out and setting: to `CC(NC(=O)C(C)(C)C)c1nc(-c2ccncc2)n[nH]1` (centres unmarked) [CBK104074] belongs 91.9%; to `O=C(O)CSc1nnc(-c2ccncc2)n1-c1ccccc1` [CBK264426], 109%.

`COc1ccc(-c2nn(CCC#N)cc2C(=O)N2CCCCC2)cc1` [CBK305834]: the viability at 28.5 h, 10 µM worked out at 92.4%. On the same count and under the same terms, to `CCCNC(=O)Cn1ncc2c3sc(C)cc3n(CC)c2c1=O` [CBK284171] belongs 85.8%. Same read-out and setting: the same measure for `Cc1ccc(C(=O)N2C3CCC2CC(O)(c2cccnc2F)C3)o1` (centres unmarked) [CBK284423]: 104%. The same measure, in the same setting: to `C[C@@H](Nc1nc(-c2ccccc2)cnc1N)c1ccccc1` [CBK063728] belongs 98.9%; to `COc1ccc(OCC(=O)N2CCN(S(=O)(=O)c3ccccc3[N+](=O)[O-])CC2)cc1` [CBK264213], 93.5%.

As for `COc1ccc(C(=O)N2CC[C@H]3CC(=O)N(CCNC(C)=O)CC[C@H]3C2)cc1` [CBK288784], the viability at 28.5 h, 10 µM was 78.8%.

Regarding `O=C(CCc1cc(F)ccc1F)NCCCn1nc2n(c1=O)CCCC2` [CBK305782], the viability at 28.5 h, 10 µM is 97.7%. Same read-out and setting: to `CN(Cc1ccc(-c2ccc(S(C)(=O)=O)cc2)nc1)C1CCN(C(=O)c2cc(Cl)ccc2Cl)CC1` [CBK165943T] belongs 84.5%. Still for that read-out and setting: the same measure for `Cc1cc(C(=O)N2CCC(c3nc(C)n4c(C)csc34)CC2)on1` [CBK285247]: 99.3%; for `CC(=O)N1CCN(c2ccc(Oc3ncc(C(F)(F)F)cc3Cl)cc2)CC1` [CBK161650]: 104%. The same measure, in the same setting: to `CC(NC(=O)N1CCC1)c1cccc(S(N)(=O)=O)c1` (centres unmarked) [CBK306357] belongs 91.5%.

Turning to `CCC(CC)C(=O)N1CCCC1c1n[nH]cc1-c1ccncc1` (centres unmarked) [CBK283467], the viability at 28.5 h, 10 µM amounted to 87.9%.

As to `FC(F)(F)c1nc2ccccc2nc1OCCN1CCNCC1` [CBK113302], the viability at 28.5 h, 10 µM was 99.4%.

Regarding `O=C(CN(C1CCCCC1)S(=O)(=O)c1ccc(Br)cc1)NCc1ccccn1` [CBK264846], the viability at 28.5 h, 10 µM is 93.6%.

For the compound `N#Cc1ccc(CNC2(Cc3cc(-c4ccc(F)cc4)on3)COC2)cc1` [CBK289653], the viability at 28.5 h, 10 µM was determined as 87.3%. On to `CC(C)Nc1nc2ccccc2nc1OC1CCN(C)C1` (centres unmarked) [CBK113283], for which the viability at 28.5 h, 10 µM was found to be 81.1%. In the case of `Cn1ccnc1CCC1CCCCN1C(=O)NCc1cccc(F)c1` (centres unmarked) [CBK307124], the viability at 28.5 h, 10 µM came out at 93.5%. On to `COc1ccc(CN2CCN(S(=O)(=O)c3ccc(Cl)cc3)CC2)cc1OC` [CBK264204G], for which the viability at 28.5 h, 10 µM came out at 104%. `CN1CCC(C(=O)N2CCN(CCc3ccccc3)CC2)CC1` [CBK200216]: the viability at 28.5 h, 10 µM turned out to be 103%. Consider `COC(=O)N1CCC(C(=O)NC(c2ccccc2)c2ncccc2C)CC1` (centres unmarked) [CBK059885], for which the viability at 28.5 h, 10 µM came to 92.6%. For the compound `CC(C)N(Cc1nc(-c2ccccc2)no1)C(=O)CCc1ccccc1` [CBK269867], the viability at 28.5 h, 10 µM stood at 109%.

For `O=C(O)CSc1cccc([N+](=O)[O-])c1` [CBK110160], the viability at 28.5 h, 10 µM was 101%. As for `COC(=O)CCC(=O)Nc1snnc1-c1ccc(Cl)cc1` [CBK153241], the viability at 28.5 h, 10 µM was found to be 99.3%. Same read-out and setting: the same measure for `CC(C)(C)OC(=O)NCCNC(=O)Nc1ccccc1C(F)(F)F` [CBK056940]: 98.6%; for `Cc1ccc2nc(C(=O)O)cc(C(=O)O)c2c1` [CBK261174]: 91.6%; for `Cc1cc(C)c2c(=O)[nH]c(SCC(=O)c3ccc(F)c(C)c3)nc2n1` [CBK266087]: 102%. As to `O=C(N[C@H]1CCN2C(=O)[C@@H](Cc3c[nH]c4ccccc34)NC(=O)[C@H]12)c1cnccn1` [CBK289232], the viability at 28.5 h, 10 µM is 89.3%. As for `O=C(C1CC1)N1CCCc2cc(C(O)CN3CCCCC3)ccc21` (centres unmarked) [CBK282135], the viability at 28.5 h, 10 µM is 99.5%. The same measure, in the same setting: the same measure for `COc1cc2c(cc1OC)/C(=C(\C(=O)Nc1ccccc1)C(=O)N1CCCCC1)NC(C)(C)C2` [CBK087103]: 94.5%; for `CCN1CC2(CCC1=O)CCN(Cc1nnc(-c3cccnc3)o1)CC2` [CBK307137]: 92.6%; for `c1ccc(N2CCN(C3c4ccccc4Sc4ccccc43)CC2)cc1` [CBK066894]: 92.1%. The same measure, in the same setting: the same measure for `CN(C)C(=O)c1ccc(-c2ccc(OC3CCN(C(=O)CC(C)(C)c4ccccc4)CC3)nc2)cc1` [CBK155047]: 101%. Regarding `O=C(CN1CCN(c2cc(-c3ccc4ccccc4c3)ncn2)CC1)N1CCCC1` [CBK091064], the viability at 28.5 h, 10 µM was found to be 104%. In the case of `O=C(O)c1[nH]c2ccccc2c1C(c1ccc(OC2CCCC2)cc1)c1c(C(=O)O)[nH]c2ccccc12` [CBK267789], the viability at 28.5 h, 10 µM was 85.9%. Same read-out and setting: to `O=c1c([N+](=O)[O-])c(O)c2ccccc2n1Cc1ccccc1` [CBK291182] belongs 94.8%; to `O=C1c2ccccc2C(=O)N1CN(Cc1ccc2c(c1)OCO2)CN1C(=O)c2ccccc2C1=O` [CBK265197], 107%; to `Cc1ccc2nc(SCC(=O)O)nc(C)c2c1` [CBK265996], 94.1%. `COc1ccc(-c2nn(-c3ccccc3)cc2/C=C2\SC(N3CC(C)OC(C)C3)=NC2=O)cc1F` (centres unmarked) [CBK265613]: the viability at 28.5 h, 10 µM came out at 100%. Same read-out and setting: the same measure for `COc1ccc(-c2cc(C(=O)NCCc3ccncc3)cnc2-c2cccc(C)c2)cn1` [CBK037489]: 99.1%. On the same count and under the same terms, the same measure for `CC(C)(C)c1ccc(OCC(O)CSc2nnc[nH]2)cc1` (centres unmarked) [CBK261776]: 103%; for `O=[N+]([O-])c1cc(F)ccc1Oc1cccc(C(F)(F)F)c1` [CBK002802]: 91.9%.

Take `CN1CCN(CCCNC(=O)C2(c3ccccc3)CCCC2)CC1` [CBK149521]: the viability at 28.5 h, 10 µM amounted to 106%.

For `O=C(c1ccccc1F)N1CCN(C2CCN(Cc3ccccc3)CC2)CC1` [CBK263404], the viability at 28.5 h, 10 µM amounted to 93.3%.

For the compound `CCCc1cc(C(=O)N[C@@H]2CCOC[C@H]2Oc2ccc(CO)cc2)cs1` [CBK306700], the viability at 28.5 h, 10 µM is 91.6%. On the same count and under the same terms, to `O=C(CSc1nnc(-c2ccccc2)c(-c2ccccc2)n1)Nc1ccc([N+](=O)[O-])cc1` [CBK263406] belongs 109%; to `COc1ccc(CC(=O)N2CCCC2c2cccc(Cc3cccc(F)c3)n2)cc1` (centres unmarked) [CBK286220], 108%. On the same count and under the same terms, to `CCC(C)NC(=O)c1ccccc1NS(=O)(=O)c1cc(C(=O)O)cs1` (centres unmarked) [CBK295652] belongs 108%; to `O=C(/C=C/c1ccc(F)cc1)NCCc1ccc(S(=O)(=O)N2CCCC2)cc1` [CBK265227], 81.8%; to `Cc1oc2nc(CSc3ccc4ccccc4c3)[nH]c(=O)c2c1C(=O)O` [CBK296645], 92.4%.

In the case of `CC(NC(=O)c1ccc(-n2ccnc2)c(-n2cccc2)c1)c1ccco1` (centres unmarked) [CBK284808], the viability at 28.5 h, 10 µM stood at 98%. On the same count and under the same terms, to `COc1ccccc1Cc1cccc(C2CCN(C(=O)c3ccccc3)CC2)n1` [CBK286236] belongs 101%; to `COc1ccc(Br)c(C(=O)N(C)Cc2cnn(C)c2)c1` [CBK305142], 97.7%.

Turning to `Cc1cc(O)nc(C(C)N2CCN(Cc3noc(C(C)(C)C)n3)CC2)n1` (centres unmarked) [CBK305249], the viability at 28.5 h, 10 µM is 95.4%. On the same count and under the same terms, the same measure for `CCCc1c(C(=O)N2CCN(C)CC2)cnn1-c1cc(Cl)cc(Cl)c1` [CBK107375]: 103%; for `CCOC(=O)c1cnc2c(C)cc(Cl)cc2c1NCCN(C)C` [CBK264800]: 90.7%. For the compound `Cc1cc2c(s1)c1cnn(CC(=O)NC3CCCC3)c(=O)c1n2C` [CBK284189], the viability at 28.5 h, 10 µM was 84.2%. The same measure, in the same setting: the same measure for `O=C1COCC(=O)N1c1ccccn1` [CBK006233]: 89.2%; for `Cc1ccc2c(c1)N(C(=O)COc1nc3ccccc3s1)C(C)(C)c1ssc(=S)c1-2` [CBK262696]: 97.7%.

With `Cc1ccccc1N1C(=O)/C(=C/c2cn(Cc3ccccc3[N+](=O)[O-])c3ccccc23)SC1=S` [CBK265101], the viability at 28.5 h, 10 µM was found to be 101%.

Turning to `CCn1c(=O)n(CC(=O)N(C)C)c2cccnc21` [CBK282299], the viability at 28.5 h, 10 µM came to 89.1%. In the case of `CN1CCCC(NC(=O)Cn2nc(C(F)(F)F)c3c2CCCC3)C1` (centres unmarked) [CBK282548], the viability at 28.5 h, 10 µM came to 101%. As for `CCN1C(=O)S/C(=C/c2ccc(OCc3cccc(C(=O)O)c3)cc2)C1=O` [CBK265605], the viability at 28.5 h, 10 µM is 106%. `CC(C)[C@H](CO)Nc1nc(-c2ccc3c(c2)OCO3)cn2ccnc12` [CBK038071]: the viability at 28.5 h, 10 µM amounted to 101%.

Regarding `CCn1nnc2c(=O)n(CC(=O)Nc3ccccc3)cnc21` [CBK287828], the viability at 28.5 h, 10 µM was 85.5%. As to `O=c1[nH]nc2cc(NCc3ccc(Cl)cc3)ncn12` [CBK288479], the viability at 28.5 h, 10 µM is 114%. Still for that read-out and setting: to `CN(C)CCN1CCN(c2nc(-c3cccc(C(N)=O)c3)cnc2N)CC1` [CBK063537] belongs 97.8%.

Still in this data set, the particulars now being: human, hela cells, % viability, bulk resorufin, single well.
As to `COc1ccc2c(c1)COC1(CCN(C(=O)NC3CCCCC3)CC1)O2` [CBK060755], the viability at 28.5 h, 10 µM was found to be 111%. On the same count and under the same terms, the same measure for `CC(=O)C1(c2ccccc2)CCN(C(=O)CNS(=O)(=O)c2ccc(C)cc2)CC1` [CBK091328]: 92.5%.
